Results on two compounds are retold here after ChEMBL document CHEMBL1275463, “Detection of the erythromycin rRNA methylase gene erm(A) in Enterococcus faecalis” (2008).

Values after ≈ are worked out from the molar mass of the structure shown. Where only a bound is given, the exact number is not on record here.

The test system of test [1] is Enterococcus faecalis. As to the kind of experiment: Antimicrobial activity against Enterococcus faecalis expressing rRNA methylase gene erm(A) obtained from pig manure by broth microdilution method. It counts as functional.
Test [2] deals with Enterococcus faecalis. As to the kind of experiment: Antimicrobial activity against Enterococcus faecalis expressing rRNA methylase gene erm(A) obtained from human by broth microdilution method. It counts as functional.

With `CN(C)[C@@H]1C(O)=C(C(N)=O)C(=O)[C@@]2(O)C(O)=C3C(=O)c4c(O)cccc4[C@@](C)(O)[C@H]3C[C@@H]12` [TETRACYCLINE], the minimal inhibitory concentration (MIC) with Enterococcus faecalis [1] and in the test on Enterococcus faecalis [2] was above 4 µg/mL each time.
Turning to `CC[C@H]1OC(=O)[C@H](C)[C@@H](O[C@H]2C[C@@](C)(OC)[C@@H](O)[C@H](C)O2)[C@H](C)[C@@H](O[C@@H]2O[C@H](C)C[C@H](N(C)C)[C@H]2O)[C@](C)(O)C[C@@H](C)C(=O)[C@H](C)[C@@H](O)[C@]1(C)O` [ERYTHROMYCIN], the MIC is above 8 µg/mL with Enterococcus faecalis [1] and 1 µg/mL (≈ 1.36 µM) against Enterococcus faecalis [2].
